Results: article PMC4964431, “Discovery of a Potential HER2 Inhibitor from Natural Products for the Treatment of HER2-Positive Breast Cancer” (International Journal of Molecular Sciences, 2016)
“Also recorded” adds a separate entry of the source.

Legend:
[1] = test system: HER2-overexpressing BT474 cell line; assay: Cell proliferation inhibition, CCK-8; assay type: cell-based; conditions: Homo sapiens, BT-474; BT474, 48 h, CCK-8, mean ± SD
Description: (§1) All cells were obtained from ATCC (Manassas, VA, USA). The HER2-overexpression SKBR3 cell line and BT474 cell line were cultured in RPMI (Roswell Park Memorial Institute medium) 1640 medium and supplemented with 10% FBS (fetal bovine serum). In addition, 100 U/mL of Penicillin and Streptomycin were added. The cell cultures were maintained at 37 °C in a humidified atmosphere of 5% CO2. Cells were seeded at density 2 × 10^4/mL in 96-well plates per well. The medium was removed after seeding 24 h. The compounds were dissolved in DMSO (dimethyl sulfoxide) and diluted with medium to different concentrations. Then, 20 µL of the selected compounds solution were added in 96-well plates, and incubation continued for 48 h at 37 °C in a humidified atmosphere of 5% CO2. After that, the medium was removed, 90 µL of fresh medium and 10 μL of CCK-8 [54] (Dojindo Molecular Technologies Inc., Kumamoto, Japan) was added to each well and incubated for additional half hour. The activity was measured by microplate reader. Graph Pad Prism 5.0 was used to calculated the IC50 values. The normal breast cells (Hs578Bst) were cultured the same as SKBR3 cells. Cell viability was measured by the CCK-8 assay as previously described.

[2] = test system: HER2-overexpressing SKBR3 cell line; assay: Cell proliferation inhibition, CCK-8; assay type: cell-based; conditions: Homo sapiens, SK-BR-3; SKBR3, 48 h, CCK-8, mean ± SD
Description: as §1

HER2 kinase = molecular target: T1, HER2 kinase (Homo sapiens, UniProt P04626); assay: In vitro HER2 kinase inhibition assay (Invitrogen kit PV3366); assay type: biochemical; conditions: HER2 0.20 μg/mL, mean ± SD, read-out: Enzymatic IC50
T1 construct: purchased Invitrogen PV3366
T1 sequence (P04626 23-1255): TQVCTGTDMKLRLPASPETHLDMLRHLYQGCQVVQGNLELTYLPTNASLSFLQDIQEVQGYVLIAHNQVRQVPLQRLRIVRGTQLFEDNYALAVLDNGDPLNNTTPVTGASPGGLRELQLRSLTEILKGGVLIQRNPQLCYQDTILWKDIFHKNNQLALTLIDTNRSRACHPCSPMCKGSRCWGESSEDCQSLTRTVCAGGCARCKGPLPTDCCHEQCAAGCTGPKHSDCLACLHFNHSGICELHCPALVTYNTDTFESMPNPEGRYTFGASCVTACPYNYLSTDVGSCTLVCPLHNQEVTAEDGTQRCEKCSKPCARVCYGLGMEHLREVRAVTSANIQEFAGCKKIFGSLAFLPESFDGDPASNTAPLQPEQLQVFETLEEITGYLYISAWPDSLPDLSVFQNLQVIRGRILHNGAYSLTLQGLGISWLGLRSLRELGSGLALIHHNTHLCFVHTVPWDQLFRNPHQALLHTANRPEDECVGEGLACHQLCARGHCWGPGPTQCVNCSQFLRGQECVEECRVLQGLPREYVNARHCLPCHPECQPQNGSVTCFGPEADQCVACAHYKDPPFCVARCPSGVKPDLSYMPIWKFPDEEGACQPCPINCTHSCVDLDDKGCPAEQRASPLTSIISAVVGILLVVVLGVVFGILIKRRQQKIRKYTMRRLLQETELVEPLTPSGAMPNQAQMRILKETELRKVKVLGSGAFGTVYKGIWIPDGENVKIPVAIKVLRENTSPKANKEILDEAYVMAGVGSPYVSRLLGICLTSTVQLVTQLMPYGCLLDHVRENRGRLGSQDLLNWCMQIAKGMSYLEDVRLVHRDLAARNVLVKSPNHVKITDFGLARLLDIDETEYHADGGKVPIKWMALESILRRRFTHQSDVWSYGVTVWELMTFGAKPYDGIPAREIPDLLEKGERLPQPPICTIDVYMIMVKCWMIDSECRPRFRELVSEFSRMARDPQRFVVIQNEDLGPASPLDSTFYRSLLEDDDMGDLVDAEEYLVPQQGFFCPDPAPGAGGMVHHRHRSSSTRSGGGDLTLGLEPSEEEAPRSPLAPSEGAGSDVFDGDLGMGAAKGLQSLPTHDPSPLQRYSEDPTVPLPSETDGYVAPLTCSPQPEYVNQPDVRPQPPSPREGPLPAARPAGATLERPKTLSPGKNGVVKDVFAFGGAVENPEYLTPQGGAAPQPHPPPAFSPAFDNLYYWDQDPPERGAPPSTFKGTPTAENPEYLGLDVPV
Description: The compounds were tested for HER2 kinase inhibition abilities using an HER2 assay kit (Invitrogen, Carlsbad, CA, USA, PV3366). The kinase kit was obtained from Invitrogen; all compounds were purchased from Thermo Electron Corporation (Walthan, MA, USA). The concentrations of HER2 were set as 0.20 μg/mL. The concentration of selected compounds was set as six gradients (0.0001–10 μM) in DMSO. Firstly, 2.5 μL of ATP solution and 2.5 μL of compound solution was added to the 5.0 μL substrate peptide. Then, the mixture solution on the plate was incubated for 1 h at 25 °C. Next, 5 μL of development solution was added to the well, and the plate was incubated for 1 h at 25 °C. To terminate the reaction, 5 μL of stop reagent was added to plate. The Infinite M100 Pro multi-label reader (Tecan, Männedorf, Switzerland) was used to measure the activity. Graph Pad Prism 5.0 (Graph Pad Software, San Diego, CA, USA) was used to calculate the IC50 values.

[3] = test system: normal breast cells (Hs578Bst); assay: Normal breast cell viability, CCK-8; assay type: cell-based; conditions: different concentrations, 24 h of treatment
Description: Three compounds (cell inhibition IC50 values < 50 μM) were further tested on the normal breast cell (Hs578Bst) to study the effect on cell proliferation and thus verify the toxicity of normal cells. CCK-8 (Cell Counting kit-8) assays were utilized to determine the effects of different concentrations of three compounds on normal breast cell viability after 24 h of treatment.
as §1

Row | SMILES | IC50 [1] [µM] | IC50 [2] [µM] | IC50 (HER2 kinase) [µM] | cytotoxicity against normal breast cells (cell viability) [3] | cytotoxicity against normal breast cells (cell viability) ([3]; listed as ZINC31178641)
1 | CS(=O)(=O)CCNCc1ccc(-c2ccc3ncnc(Nc4ccc(OCc5cccc(F)c5)c(Cl)c4)c3c2)o1 [lapatinib, Lapatinib, reference compound] | 0.45 ± 0.03 | 0.38 ± 0.02 |  |  | 
2 | CC(C)=CCC/C(C)=C/Cc1c(O)cc2c(c1O)C(=O)[C@H](O)[C@@H](c1ccc(O)cc1)O2 [ZINC13378641, (2R,3R)-6-[(2E)-3,7-dimethylocta-2,6-dienyl]-3,5,7-trihydroxy-2-(4-hydroxyphenyl)chroman-4-one] | 18.6 ± 2.06 | 26.5 ± 1.62 | 3.71 ± 0.03 | little cytotoxicity | low cytotoxicity
3 | C/C(=C\Cc1cc(C(=O)O)cc(CC[C@H](C)C(=O)/C=C/C(C)(C)O)c1O)CO [ZINC49181256, 4-hydroxy-3-[(E,3S)-7-hydroxy-3,7-dimethyl-4-oxo-oct-5-enyl]-5-[(E)-4-hydroxy-3-methyl-but-2-enyl]be] | > 50 | > 50 | 9.18 ± 0.01 |  | 
4 | O=C(O)c1cccc(C(=O)CC[C@@H]2O[C@@H](n3cnc4c(=O)[nH]cnc43)[C@@H](O)[C@H]2O)c1 [ZINC35456515, 3-[3-[(2S,3R,4S,5R)-3,4-dihydroxy-5-(6-hydroxypurin-9-yl)tetrahydrofuran-2-yl]propanoyl]benzoic] | > 50 | > 50 | > 10 |  | 
5 | CC(C)=CC[C@@H](O)/C(C)=C/Cc1cc(C(=O)O)cc(C/C=C(\C)CO)c1O [ZINC31166919, 4-hydroxy-3-[(2E,4R)-4-hydroxy-3,7-dimethyl-octa-2,6-dienyl]-5-[(E)-4-hydroxy-3-methyl-but-2-enyl]be] | 6.78 ± 0.68 | 8.61 ± 0.45 | 2.63 ± 0.03 | slightly enhanced cytotoxicity with increase of concentration | 
6 | CC(C)=CCC/C(C)=C/Cc1c(O)cc2c(c1O)C(=O)CC(c1ccc(O)c(O)c1)O2 (stereo not drawn) [ZINC15122021, 2-(3,4-dihydroxyphenyl)-6-[(2E)-3,7-dimethylocta-2,6-dienyl]-5,7-dihydroxy-2,3-dihydrochromen-4-one] | 4.11 ± 0.95 | 1.22 ± 0.05 | 0.18 ± 0.002 | little cytotoxicity; also recorded: low cytotoxicity | 
